Test results as given in patent publication US20250382297A1, “INHIBITORS OF FGFR2 AND FGFR3 AND USES THEREOF” (Insilico Medicine IP Limited, priority 2022, published 2025).
Like-named read-outs stand apart in the source and are kept apart here.

How the values were obtained:
FGFR1 = FGFR1 (Homo sapiens (Human), UniProt P11362); test: FGFR biochemical assay (LanthaScreen TR-FRET kinase assay), FGFR1
Description: (§1) Convert Ratio values to percent inhibition values (Percent inhibition=(max−sample Ratio)/(max−min)*100) where “min” means the Ratio of no enzyme control and “max” means the Ratio of DMSO control. • Data are analyzed and curve fitting is performed by XLFit Excel add-in version 5.4.0.8. The IC50 calculation equation is: Y=Bottom+(Top-Bottom)/(1+ (IC50/X)^HillSlope.

FGFR2 = FGFR2 (Homo sapiens (Human), UniProt P21802); test: FGFR biochemical assay (LanthaScreen TR-FRET kinase assay), FGFR2
Sequence of FGFR2 (P21802 22-821): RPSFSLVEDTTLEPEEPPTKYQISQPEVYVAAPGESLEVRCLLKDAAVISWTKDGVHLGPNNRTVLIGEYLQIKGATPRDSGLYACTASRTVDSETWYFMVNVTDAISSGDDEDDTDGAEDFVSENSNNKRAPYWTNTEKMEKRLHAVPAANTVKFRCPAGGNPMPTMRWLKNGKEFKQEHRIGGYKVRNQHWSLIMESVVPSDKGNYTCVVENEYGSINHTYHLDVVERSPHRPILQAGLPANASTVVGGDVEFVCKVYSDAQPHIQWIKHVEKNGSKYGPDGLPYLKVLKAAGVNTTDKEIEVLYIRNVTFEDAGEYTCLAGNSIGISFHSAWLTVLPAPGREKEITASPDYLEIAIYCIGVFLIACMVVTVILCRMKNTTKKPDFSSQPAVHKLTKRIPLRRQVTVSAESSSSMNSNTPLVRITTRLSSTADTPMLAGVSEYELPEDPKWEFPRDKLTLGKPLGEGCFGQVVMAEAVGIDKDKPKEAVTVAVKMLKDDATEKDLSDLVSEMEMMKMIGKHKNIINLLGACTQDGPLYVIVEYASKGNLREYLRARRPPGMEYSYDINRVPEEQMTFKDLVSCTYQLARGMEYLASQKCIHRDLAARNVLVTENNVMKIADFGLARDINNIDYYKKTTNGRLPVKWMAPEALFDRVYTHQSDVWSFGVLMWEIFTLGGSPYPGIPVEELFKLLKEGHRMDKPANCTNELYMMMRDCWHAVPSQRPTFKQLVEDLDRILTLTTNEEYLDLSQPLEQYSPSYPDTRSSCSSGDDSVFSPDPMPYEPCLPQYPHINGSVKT
Description: as §1

FGFR3 = FGFR3 (Homo sapiens (Human), UniProt P22607); test: FGFR biochemical assay (LanthaScreen TR-FRET kinase assay), FGFR3
Sequence of FGFR3 (P22607 23-806): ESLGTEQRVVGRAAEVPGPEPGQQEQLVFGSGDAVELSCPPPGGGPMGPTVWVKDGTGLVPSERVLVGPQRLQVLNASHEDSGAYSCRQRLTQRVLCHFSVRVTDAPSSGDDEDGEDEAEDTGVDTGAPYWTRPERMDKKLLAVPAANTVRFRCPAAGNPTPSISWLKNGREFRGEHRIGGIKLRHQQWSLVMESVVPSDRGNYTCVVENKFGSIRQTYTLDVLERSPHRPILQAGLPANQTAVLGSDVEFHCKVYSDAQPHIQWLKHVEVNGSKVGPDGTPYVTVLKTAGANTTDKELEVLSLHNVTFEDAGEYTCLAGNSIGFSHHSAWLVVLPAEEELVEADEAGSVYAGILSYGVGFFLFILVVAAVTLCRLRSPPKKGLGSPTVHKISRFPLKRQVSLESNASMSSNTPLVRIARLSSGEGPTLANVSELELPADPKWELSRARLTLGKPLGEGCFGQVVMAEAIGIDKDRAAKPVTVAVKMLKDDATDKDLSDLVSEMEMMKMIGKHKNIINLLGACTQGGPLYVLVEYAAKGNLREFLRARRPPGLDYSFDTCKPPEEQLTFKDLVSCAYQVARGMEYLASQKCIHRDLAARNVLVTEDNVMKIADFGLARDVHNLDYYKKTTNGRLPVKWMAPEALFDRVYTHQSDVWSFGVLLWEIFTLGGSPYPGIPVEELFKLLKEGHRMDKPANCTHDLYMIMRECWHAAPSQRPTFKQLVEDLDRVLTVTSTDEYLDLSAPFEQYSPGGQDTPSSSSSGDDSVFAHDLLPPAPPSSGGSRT
Description: as §1

[1] = read-out: FGFR2 IC50, incubation with enzyme at room temperature for 10 minutes before substrate, ATP 22 μM, FGFR2 0.01 nM
[2] = read-out: FGFR1 IC50, incubation with enzyme at room temperature for 10 minutes before substrate, ATP 28 μM, FGFR1 0.01 nM
[3] = read-out: FGFR3 IC50, incubation with enzyme at room temperature for 10 minutes before substrate, ATP 35 μM, FGFR3 0.1 nM
[4] = read-out: FGFR2 IC50, * incubation at room temperature for 60 minutes before addition of substrate solution, ATP 22 μM, FGFR2 0.01 nM
[5] = read-out: FGFR3 IC50, * incubation at room temperature for 60 minutes before addition of substrate solution, ATP 35 μM, FGFR3 0.1 nM

Sequence of FGFR1 (P11362 22-822): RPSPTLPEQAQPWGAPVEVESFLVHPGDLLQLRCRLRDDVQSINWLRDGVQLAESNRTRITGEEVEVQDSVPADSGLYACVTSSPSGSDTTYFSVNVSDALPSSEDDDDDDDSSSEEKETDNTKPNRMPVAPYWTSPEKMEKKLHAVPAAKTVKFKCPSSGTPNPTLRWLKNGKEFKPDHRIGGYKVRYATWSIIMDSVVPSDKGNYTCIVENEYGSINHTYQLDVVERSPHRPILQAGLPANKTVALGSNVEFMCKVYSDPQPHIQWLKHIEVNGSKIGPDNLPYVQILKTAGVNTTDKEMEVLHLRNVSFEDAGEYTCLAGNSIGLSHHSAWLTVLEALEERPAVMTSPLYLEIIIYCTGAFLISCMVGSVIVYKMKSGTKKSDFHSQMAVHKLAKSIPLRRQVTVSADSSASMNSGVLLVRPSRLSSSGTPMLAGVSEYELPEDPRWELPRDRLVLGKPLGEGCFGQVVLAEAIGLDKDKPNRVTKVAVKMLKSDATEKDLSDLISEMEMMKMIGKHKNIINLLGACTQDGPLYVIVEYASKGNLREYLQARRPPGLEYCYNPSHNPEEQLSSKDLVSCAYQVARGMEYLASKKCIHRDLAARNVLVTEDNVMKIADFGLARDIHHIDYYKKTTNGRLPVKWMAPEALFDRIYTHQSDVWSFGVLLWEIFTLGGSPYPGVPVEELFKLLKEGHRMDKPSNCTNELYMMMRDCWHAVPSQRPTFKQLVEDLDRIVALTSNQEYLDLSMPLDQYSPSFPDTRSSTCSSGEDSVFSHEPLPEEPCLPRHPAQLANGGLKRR

Row | SMILES | IC50 (FGFR1) [µM] | IC50 (FGFR2) [µM] | IC50 (FGFR3) [µM] | IC50 (FGFR2; [4]) [µM] | other results
1 | C=CC(=O)Nc1ccc(-c2c(-c3ccc(Oc4nccc(C)n4)cc3)c(C(N)=O)c3cnc(C)cn23)cc1OC [Example 38, 6-(4-acrylamido-3-methoxyphenyl)-3-methyl-7-(4-((4-methylpyrimidin-2-yl)oxy)phenyl)pyrrolo[1,2-a]pyrazine-8-carboxamide] | 0.1 to 1 | 0.01 to 0.1 | 0.01 to 0.1 | – | –
2 | C=C(F)C(=O)Nc1ccc(-c2c(-c3cc(F)c(Oc4nccc(C)n4)c(F)c3)c(C(N)=O)c3cnc(C)cn23)cc1 [Example 48, 7-(3,5-difluoro-4-((4-methylpyrimidin-2-yl)oxy)phenyl)-6-(4-(2-fluoroacrylamido)phenyl)-3-methylpyrrolo[1,2-a]pyrazine-8-carboxamide] | 0.1 to 1 | 0.01 to 0.1 | 0.01 to 0.1 | – | –
3 | C=C(F)C(=O)Nc1ccc(-c2c(-c3ccc(Oc4nccc(C)n4)c(F)c3)c(C(N)=O)c3cnc(C)cn23)cn1 [Example 51, 7-(3-fluoro-4-((4-methylpyrimidin-2-yl)oxy)phenyl)-6-(6-(2-fluoroacrylamido)pyridin-3-yl)-3-methylpyrrolo[1,2-a]pyrazine-8-carboxamide] | 0.01 to 0.1 | – | 0.01 to 0.1 | – | IC50 (FGFR2; [1]): < 0.01 µM
4 | C=C(F)C(=O)Nc1ccc(-c2c(-c3ccc(Oc4cc(C)ccn4)cc3)c(C(N)=O)c3cnc(C)cn23)cc1 [Example 52] | – | 0.1 to 1 | – | – | IC50 (FGFR1; [2]): > 1 µM; IC50 (FGFR3; [3]): > 1 µM
5 | C=C(F)C(=O)Nc1ccc(-c2c(-c3ccc(Oc4nc(C)cc(C)n4)c(F)c3)c(C(N)=O)c3cnc(C)cn23)cc1 [Example 53, 7-(4-((4,6-dimethylpyrimidin-2-yl)oxy)-3-fluorophenyl)-6-(4-(2-fluoroacrylamido)phenyl)-3-methylpyrrolo[1,2-a]pyrazine-8-carboxamide] | – | 0.01 to 0.1 | 0.1 to 1 | – | IC50 (FGFR1; read-out: FGFR1 IC50, * incubation at room temperature for 60 minutes before addition of substrate solution, ATP 28 μM, FGFR1 0.01 nM): > 1 µM
6 | C=C(F)C(=O)Nc1ccc(-c2c(-c3ccc(Oc4ncc(F)c(C)n4)c(F)c3)c(C(N)=O)c3cnc(C)cn23)cc1 [Example 54, 7-(3-fluoro-4-((5-fluoro-4-methylpyrimidin-2-yl)oxy)phenyl)-6-(4-(2-fluoroacrylamido)phenyl)-3-methylpyrrolo[1,2-a]pyrazine-8-carboxamide] | 0.1 to 1 | 0.01 to 0.1 | 0.01 to 0.1 | – | –
7 | C=C(F)C(=O)Nc1ccc(-c2c(-c3ccc(Oc4nccc(C)n4)cc3)c(C(N)=O)c3cnc(C(F)(F)F)cn23)cc1 [Example 56, 6-(4-(2-fluoroacrylamido)phenyl)-7-(4-((4-methylpyrimidin-2-yl)oxy)phenyl)-3-(trifluoromethyl)pyrrolo[1,2-a]pyrazine-8-carboxamide] | 0.1 to 1 | 0.01 to 0.1 | 0.1 to 1 | – | –
8 | C=C(F)C(=O)Nc1ccc(-c2c(-c3ccc(C(=O)NCC4(F)COC4)cc3)c(C(N)=O)c3cnc(C)cn23)cc1 [Example 63, 6-(4-(2-fluoroacrylamido)phenyl)-7-(4-(((3-fluorooxetan-3-yl)methyl)carbamoyl)phenyl)-3-methylpyrrolo[1,2-a]pyrazine-8-carboxamide] | 0.01 to 0.1 | – | 0.01 to 0.1 | < 0.01 | –
9 | C=CC(=O)Nc1ccc(-c2c(-c3ccc(C(=O)NCC4(F)COC4)cc3)c(C(N)=O)c3cnc(C)cn23)cc1 [Example 64, 6-(4-acrylamidophenyl)-7-(4-(((3-fluorooxetan-3-yl)methyl)carbamoyl)phenyl)-3-methylpyrrolo[1,2-a]pyrazine-8-carboxamide] | 0.01 to 0.1 | – | – | – | IC50 (FGFR2; [1]): < 0.01 µM; IC50 (FGFR3; [3]): < 0.01 µM
10 | CC#CC(=O)Nc1ccc(-c2c(-c3ccc(C(=O)NCC4(F)COC4)cc3)c(C(N)=O)c3cnc(C)cn23)cc1 [Example 65, 6-(4-(but-2-ynamido)phenyl)-7-(4-(((3-fluorooxetan-3-yl)methyl)carbamoyl)phenyl)-3-methylpyrrolo[1,2-a]pyrazine-8-carboxamide] | 0.1 to 1 | 0.01 to 0.1 | 0.1 to 1 | – | –
11 | C=CC(=O)N1CC2(CC=C(c3c(-c4ccc(Oc5nccc(C)n5)cc4)c(C(N)=O)c4cnc(C)cn34)CC2)C1 [Example 70, 6-(2-acryloyl-2-azaspiro[3.5]non-6-en-7-yl)-3-methyl-7-(4-((4-methylpyrimidin-2-yl)oxy)phenyl)pyrrolo[1,2-a]pyrazine-8-carboxamide] | 0.1 to 1 | 0.1 to 1 | 0.1 to 1 | – | –
12 | C=C(F)C(=O)N1CCc2cc(-c3c(-c4ccc(Oc5nccc(C)n5)c(F)c4)c(C(N)=O)c4cnc(C)cn34)ccc21 [Example 72, 7-(3-fluoro-4-((4-methylpyrimidin-2-yl)oxy)phenyl)-6-(1-(2-fluoroacryloyl)indolin-5-yl)-3-methylpyrrolo[1,2-a]pyrazine-8-carboxamide] | 0.1 to 1 | – | 0.01 to 0.1 | < 0.01 | –
13 | C=C(F)C(=O)N1CCc2cc(-c3c(-c4ccc(Oc5nccc(C)n5)c(F)c4)c(C(N)=O)c4cnc(C)cn34)c(F)cc21 [Example 73, 6-(6-fluoro-1-(2-fluoroacryloyl)indolin-5-yl)-7-(3-fluoro-4-((4-methylpyrimidin-2-yl)oxy)phenyl)-3-methylpyrrolo[1,2-a]pyrazine-8-carboxamide] | 0.01 to 0.1 | – | – | < 0.01 | IC50 (FGFR3; [5]): < 0.01 µM
14 | C=C(F)C(=O)Nc1ccc(-c2c(-c3cccc(C(=O)NC)c3)c(C(N)=O)c3cnc(C)cn23)c(F)c1 [Example 75, 6-(2-fluoro-4-(2-fluoroacrylamido)phenyl)-3-methyl-7-(3-(methylcarbamoyl)phenyl)pyrrolo[1,2-a]pyrazine-8-carboxamide] | 0.1 to 1 | 0.1 to 1 | 0.1 to 1 | – | –
15 | C=CC(=O)Nc1ccc(-c2c(-c3ccc(Oc4cccc(C)n4)cc3)c(C(N)=O)c3cnc(C4COC4)cn23)cc1 [Example 76, 6-(4-acrylamidophenyl)-7-(4-((6-methylpyridin-2-yl)oxy)phenyl)-3-(oxetan-3-yl)pyrrolo[1,2-a]pyrazine-8-carboxamide] | 0.01 to 0.1 | – | – | – | IC50 (FGFR2; [1]): < 0.01 µM; IC50 (FGFR3; [3]): < 0.01 µM
16 | C=CC(=O)Nc1ccc(-c2c(-c3ccc(Oc4cccc(C)n4)cc3)c(C(N)=O)c3cnc(C#N)cn23)cc1 [Example 77, 6-(4-acrylamidophenyl)-3-cyano-7-(4-((6-methylpyridin-2-yl)oxy)phenyl)pyrrolo[1,2-a]pyrazine-8-carboxamide] | – | 0.01 to 0.1 | 0.1 to 1 | – | IC50 (FGFR1; [2]): > 1 µM
17 | C=CC(=O)Nc1ccc(-c2c(-c3ccc(Oc4nccc(C)n4)c(F)c3)c(C(N)=O)c3cnc(CO)cn23)cc1 [Example 78, 6-(4-acrylamidophenyl)-7-(3-fluoro-4-((4-methylpyrimidin-2-yl)oxy)phenyl)-3-(hydroxymethyl)pyrrolo[1,2-a]pyrazine-8-carboxamide] | 0.1 to 1 | – | – | – | IC50 (FGFR2; [1]): < 0.01 µM; IC50 (FGFR3; [3]): < 0.01 µM
18 | Cc1ccnc(Oc2ccc(-c3c(C(N)=O)c4cnc(CO)cn4c3-c3ccc(NC(=O)/C=C/CN(C)C)cc3)cc2)n1 [Example 79, (E)-6-(4-(4-(dimethylamino)but-2-enamido)phenyl)-3-(hydroxymethyl)-7-(4-((4-methylpyrimidin-2-yl)oxy)phenyl)pyrrolo[1,2-a]pyrazine-8-carboxamide] | 0.01 to 0.1 | – | 0.01 to 0.1 | – | IC50 (FGFR2; [1]): < 0.01 µM
19 | C=C(F)C(=O)Nc1ccc(-c2c(-c3ccc(Oc4nccc(C)n4)cc3)c(C(N)=O)c3cnc(CCO)cn23)cc1 [Example 80, 6-(4-(2-fluoroacrylamido)phenyl)-3-(2-hydroxyethyl)-7-(4-((4-methylpyrimidin-2-yl)oxy)phenyl)pyrrolo[1,2-a]pyrazine-8-carboxamide] | 0.1 to 1 | – | 0.01 to 0.1 | < 0.01 | –
20 | C=C(F)C(=O)Nc1ccc(-c2c(-c3ccc(Oc4nccc(C)n4)cc3)c(C(N)=O)c3cnc(CCO)cn23)c(F)c1 [Example 81, 6-(2-fluoro-4-(2-fluoroacrylamido)phenyl)-3-(2-hydroxyethyl)-7-(4-((4-methylpyrimidin-2-yl)oxy)phenyl)pyrrolo[1,2-a]pyrazine-8-carboxamide] | 0.01 to 0.1 | – | – | < 0.01 | IC50 (FGFR3; [5]): < 0.01 µM
21 | C=C(F)C(=O)Nc1ccc(-c2c(-c3ccc(Oc4nccc(C)n4)c(F)c3)c(C(N)=O)c3cnc(CCO)cn23)c(F)c1 [Example 82, 7-(3-fluoro-4-((4-methylpyrimidin-2-yl)oxy)phenyl)-6-(2-fluoro-4-(2-fluoroacrylamido)phenyl)-3-(2-hydroxyethyl)pyrrolo[1,2-a]pyrazine-8-carboxamide] | 0.01 to 0.1 | – | – | < 0.01 | IC50 (FGFR3; [5]): < 0.01 µM
22 | C=C(F)C(=O)Nc1ccc(-c2c(-c3ccc(Oc4nccc(C)n4)cc3)c(C(N)=O)c3cnc(NC(C)=O)cn23)cc1 [Example 83, 3-acetamido-6-(4-(2-fluoroacrylamido)phenyl)-7-(4-((4-methylpyrimidin-2-yl)oxy)phenyl)pyrrolo[1,2-a]pyrazine-8-carboxamide] | 0.1 to 1 | – | 0.01 to 0.1 | < 0.01 | –
23 | C=CC(=O)Nc1ccc(-c2c(-c3ccc(Oc4cccc(C)n4)cc3)c(C(N)=O)c3ccnc(C)n23)cc1 [Example 84, 7-(4-acrylamidophenyl)-1-methyl-6-(4-((6-methylpyridin-2-yl)oxy)phenyl)pyrrolo[1,2-c]pyrimidine-5-carboxamide] | 0.1 to 1 | – | 0.01 to 0.1 | – | IC50 (FGFR2; [1]): < 0.01 µM
